Assay results taken from article PMC4696493 (RSC advances, 2014).
≈ marks a conversion by molar mass, not a printed value. Where two headings read alike, the source gives them in different places. No end group written: not given here.

Tests used:
[1] = test system: Bacillus subtilis PY79
[2] = test system: E. coli K12
[3] = target: G-actin (Oryctolagus cuniculus, UniProt P68135); assay: Surface plasmon resonance, actin binding; parameters: species or system rabbit

Compound: CC[C@H](C)[C@H](NC(=O)[C@H](CCCCN)NC(=O)[C@H](CCC(=O)O)NC(=O)[C@H](CCCCN)NC(=O)[C@H](CO)NC(=O)[C@H](CCCCN)NC(=O)[C@H](CCCNC(=N)N)NC(=O)[C@H](Cc1ccccc1)NC(=O)[C@H](Cc1ccccc1)NC(=O)[C@H](CC(=O)O)NC(=O)CNC(=O)[C@H](CC(C)C)NC(=O)[C@@H](N)CC(C)C)C(=O)NCC(=O)N[C@@H](CCCCN)C(=O)N[C@@H](CCC(=O)O)C(=O)N[C@@H](Cc1ccccc1)C(=O)N[C@@H](CCCCN)C(=O)N[C@@H](CCCNC(=N)N)C(=O)N[C@H](C(=O)N[C@H](C(=O)N[C@@H](CCC(N)=O)C(=O)N[C@@H](CCCNC(=N)N)C(=O)N[C@H](C(=O)N[C@@H](CCCCN)C(=O)N[C@@H](CC(=O)O)C(=O)N[C@@H](Cc1ccccc1)C(=O)N[C@@H](CC(C)C)C(=O)N[C@@H](CCCNC(=N)N)C(=O)N[C@@H](CC(N)=O)C(=O)N[C@@H](CC(C)C)C(=O)N[C@H](C(=O)N1CCC[C@H]1C(=O)N[C@@H](CCCNC(=N)N)C(=O)N[C@H](C(=O)N[C@@H](CCC(=O)O)C(=O)N[C@@H](CO)C(=O)O)[C@@H](C)O)C(C)C)[C@@H](C)CC)C(C)C)[C@@H](C)CC [LL-37, reference compound]
- MIC ([1]; measured with B. subtilis PY79, LB, 37 °C): 1.1 µM (≈ 4.94 µg/mL)
- MIC ([2]; E. coli K12, 100 mM NaCl, tryptic soy broth (TSB)): 10 µM (≈ 44.9 µg/mL)
- MIC ([2]; E. coli K12, no salt, tryptic soy broth (TSB)): 10 µM

Compound: FKRIVQRIKDFLR-NH2 [FK-13]
- Kd [3]: 18.6 µM
- MIC ([1]; PY79): 3.3 µM

Compound: KRIVQRIKDF-NH2 [KR-10]
- Kd [3]: 28.4 µM
- MIC ([2]; K12): >160 µM

Compound: KRIVQRIKDFLR-NH2 [KR-12]
- Kd [3]: 11.8 µM
- MIC ([1]; PY79): 6.6 µM
